Measured values reported in article PMC9516332 (Frontiers in Oncology, 2022).
Like-named read-outs stand apart in the source and are kept apart here.

Columns and labels:
Experiment in all cases: Kinase panel profiling at 1 µmol/L (MSA or IMAP), percentage inhibition
Format in all cases: biochemical
[1] = target: T1, panel of 255 wild-type kinases (Homo sapiens, UniProt P54753); conditions: read-out: %-inhibition at 1 µmol/L, EPHB3
T1 sequence (P54753 34-998): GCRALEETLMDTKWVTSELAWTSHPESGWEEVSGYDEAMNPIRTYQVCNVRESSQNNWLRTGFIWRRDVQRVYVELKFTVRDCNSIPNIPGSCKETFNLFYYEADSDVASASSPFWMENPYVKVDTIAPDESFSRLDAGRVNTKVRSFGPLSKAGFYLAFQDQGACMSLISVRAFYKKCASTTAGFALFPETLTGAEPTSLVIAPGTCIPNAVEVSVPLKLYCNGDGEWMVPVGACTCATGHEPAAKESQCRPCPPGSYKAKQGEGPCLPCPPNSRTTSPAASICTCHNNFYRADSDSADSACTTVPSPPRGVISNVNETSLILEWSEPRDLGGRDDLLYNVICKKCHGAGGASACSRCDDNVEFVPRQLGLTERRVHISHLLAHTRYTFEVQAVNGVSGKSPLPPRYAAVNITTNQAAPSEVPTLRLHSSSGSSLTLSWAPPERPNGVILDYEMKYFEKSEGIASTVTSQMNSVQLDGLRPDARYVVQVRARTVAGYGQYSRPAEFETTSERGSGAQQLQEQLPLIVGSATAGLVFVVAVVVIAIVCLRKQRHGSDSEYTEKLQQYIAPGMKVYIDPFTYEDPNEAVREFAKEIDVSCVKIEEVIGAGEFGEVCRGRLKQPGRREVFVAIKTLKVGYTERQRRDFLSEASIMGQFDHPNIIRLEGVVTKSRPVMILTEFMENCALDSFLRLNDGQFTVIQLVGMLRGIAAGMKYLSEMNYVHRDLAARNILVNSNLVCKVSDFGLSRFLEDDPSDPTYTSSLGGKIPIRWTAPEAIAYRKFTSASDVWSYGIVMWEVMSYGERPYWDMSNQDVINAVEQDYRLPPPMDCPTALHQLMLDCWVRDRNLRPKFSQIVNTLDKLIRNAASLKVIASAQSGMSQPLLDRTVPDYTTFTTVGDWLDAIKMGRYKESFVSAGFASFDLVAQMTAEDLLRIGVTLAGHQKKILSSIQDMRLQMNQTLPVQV

[2] = target: panel of 255 wild-type kinases (Homo sapiens, UniProt Q8N4C8); conditions: read-out: %-inhibition, MINK
[3] = target: panel of 255 wild-type kinases (Homo sapiens, UniProt O75582); conditions: read-out: %-inhibition, MSK1
[4] = target: panel of 255 wild-type kinases (Homo sapiens, UniProt P53779); conditions: read-out: %-inhibition at 1 µmol/L, JNK3
[5] = target: panel of 255 wild-type kinases (Homo sapiens, UniProt Q9P0L2); conditions: read-out: %-inhibition, MARK1
[6] = target: panel of 255 wild-type kinases (Homo sapiens, UniProt P09619); conditions: read-out: %-inhibition at 1 µmol/L, PDGFRβ
[7] = target: panel of 255 wild-type kinases (Homo sapiens, UniProt P45983); conditions: read-out: %-inhibition at 1 µmol/L, JNK1
[8] = target: T2, panel of 255 wild-type kinases (Homo sapiens, UniProt O43781); conditions: read-out: %-inhibition at 1 µmol/L, DYRK3
T2 sequence (O43781 1-588): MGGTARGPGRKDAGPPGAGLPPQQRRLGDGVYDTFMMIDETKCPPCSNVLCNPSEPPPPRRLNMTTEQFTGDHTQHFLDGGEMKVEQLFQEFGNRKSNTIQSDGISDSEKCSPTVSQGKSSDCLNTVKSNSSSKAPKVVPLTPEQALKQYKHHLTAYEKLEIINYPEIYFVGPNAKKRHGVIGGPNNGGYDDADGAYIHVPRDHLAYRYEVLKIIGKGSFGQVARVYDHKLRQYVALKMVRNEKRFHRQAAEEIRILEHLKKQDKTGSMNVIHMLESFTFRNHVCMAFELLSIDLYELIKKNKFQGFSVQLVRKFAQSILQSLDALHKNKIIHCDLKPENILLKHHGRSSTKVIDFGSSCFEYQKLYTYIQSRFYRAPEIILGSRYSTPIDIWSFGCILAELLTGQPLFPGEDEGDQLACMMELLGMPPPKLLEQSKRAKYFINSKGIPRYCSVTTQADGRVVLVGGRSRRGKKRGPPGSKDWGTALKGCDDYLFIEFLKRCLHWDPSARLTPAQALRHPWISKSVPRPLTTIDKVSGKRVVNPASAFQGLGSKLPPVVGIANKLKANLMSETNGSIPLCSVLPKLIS

[9] = target: panel of 255 wild-type kinases (Homo sapiens, UniProt P07948); conditions: read-out: %-inhibition at 1 µmol/L, LYNa
[10] = target: panel of 255 wild-type kinases (Homo sapiens, UniProt P00533); conditions: read-out: %-inhibition at 1 µmol/L, EGFR
[11] = target: panel of 255 wild-type kinases (Homo sapiens, UniProt Q9Y6E0); conditions: read-out: %-inhibition, MST3
[12] = kinase EPHB3, 1 µmol/L single concentration
[13] = MINK, 1 µmol/L single concentration
[14] = MSK1, 1 µmol/L single concentration
[15] = kinase JNK3, 1 µmol/L single concentration
[16] = MARK1, 1 µmol/L single concentration
[17] = kinase PDGFRβ, 1 µmol/L single concentration
[18] = kinase JNK1, 1 µmol/L single concentration
[19] = kinase DYRK3, 1 µmol/L single concentration
[20] = kinase LYNa, 1 µmol/L single concentration
[21] = kinase EGFR, 1 µmol/L single concentration
[22] = MST3, 1 µmol/L single concentration

inhibition at 1 µM [1, 12] [%]	inhibition at 1 µM [2, 13] [%]	inhibition at 1 µM [3, 14] [%]	inhibition at 1 µM [4, 15] [%]	inhibition at 1 µM [5, 16] [%]	inhibition at 1 µM [6, 17] [%]	inhibition at 1 µM [7, 18] [%]	inhibition at 1 µM [8, 19] [%]	inhibition at 1 µM [9, 20] [%]	inhibition at 1 µM [10, 21] [%]	inhibition at 1 µM [11, 22] [%]	Compound	further results
-3	-4.5	3	2.14	-16	20	-4.74	-4.7	6.53	26	3	Cn1cnc2c(F)c(Nc3ccc(Br)cc3Cl)c(C(=O)NOCCO)cc21 [selumetinib]	
-0.598	-5.33	24	-8.47	22	94	-5.39	19	60	0.116	6	COc1ccc(CN2C3CC2CN(c2ccc(-c4cc(OCC(C)(C)O)cn5ncc(C#N)c45)cn2)C3)cn1 [selpercatinib]	
-0.506	-2.24	-0.0628	-7	-6.38	-0.157	-3.55	-6	5	5	1.65	O=C(Nc1cnn2ccc(N3CCC[C@@H]3c3cc(F)ccc3F)nc12)N1CC[C@H](O)C1 [larotrectinib]	
											CNC(=O)c1ccc(-c2cnc3ncc(Cc4ccc5ncccc5c4)n3n2)cc1F [capmatinib]	inhibition at 1 µM [1]: 0.192%; inhibition at 1 µM [2]: -4%; inhibition at 1 µM [3]: 4%; inhibition at 1 µM [4]: 5%; inhibition at 1 µM [5]: -5.32%; inhibition at 1 µM [6]: 20%; inhibition at 1 µM [7]: -5.59%; inhibition at 1 µM [8]: 4.5%; inhibition at 1 µM [9]: 1.12%; inhibition at 1 µM [10]: 17%; inhibition at 1 µM [11]: 0.296%
4	0.317	-8	-10	4.47	2	0.533	-2	0.825	6	0.418	C[C@H](Nc1ncnc2nc[nH]c12)c1cc2cccc(Cl)c2c(=O)n1-c1ccccc1 [duvelisib]	
-0.435	-3.43	10	6	-13	99	-5	-4.32	92	48	8	CO[C@]1(C(=O)N[C@@H](C)c2ccc(-n3cc(F)cn3)nc2)CC[C@H](c2nc(C)cc(Nc3cc(C)[nH]n3)n2)CC1 [pralsetinib]	
-5.68	-4.35	2.56	1.13	-7	31	-3.72	1.07	7	95	10	Cc1cc(Nc2ncnc3ccc(NC4=NC(C)(C)CO4)cc23)ccc1Oc1ccn2ncnc2c1 [tucatinib]	
3.28	-4.54	10	7	0.905	-2.23	-2.59	-3.3	3.76	9	1.89	Cn1cnc2c(F)c(Nc3ccc(Br)cc3F)c(C(=O)NOCCO)cc21 [binimetinib]	

Compound	inhibition at 1 µM [1, 12] [%]	inhibition at 1 µM [2, 13] [%]	inhibition at 1 µM [3, 14] [%]	inhibition at 1 µM [4, 15] [%]	inhibition at 1 µM [5, 16] [%]	inhibition at 1 µM [6, 17] [%]	inhibition at 1 µM [7, 18] [%]	inhibition at 1 µM [8, 19] [%]	inhibition at 1 µM [9, 20] [%]	inhibition at 1 µM [10, 21] [%]	inhibition at 1 µM [11, 22] [%]	further results
CCN1C(=O)N(c2c(F)c(OC)cc(OC)c2F)Cc2cnc3[nH]c(CN4CCOCC4)cc3c21 [pemigatinib]	-2.52	-4.31	3.7	-7	57	73	-4.3	-2.68	66	-2	80	
FC(F)(F)c1ccc(CNc2ccc(Cc3c[nH]c4ncc(Cl)cc34)cn2)cn1 [pexidartinib]	-7	9	10	0.454	3	64	-1.87	8	24		5	
C=CC(=O)N1CCC([C@@H]2CCNc3c(C(N)=O)c(-c4ccc(Oc5ccccc5)cc4)nn32)CC1 [zanubrutinib]	-1.32	-1.27	0.565	-8	-6	3.39	-3.49	-6		92	0.0873	
CCN1CCN(c2ccc(Nc3cc(N(C)C(=O)Nc4c(Cl)c(OC)cc(OC)c4Cl)ncn3)cc2)CC1 [infigratinib]	-1	-2.82	2.27	4	-9	59	-3.19	-10	84		7	
CN1CCN(c2ccc(C(=O)Nc3n[nH]c4ccc(Cc5cc(F)cc(F)c5)cc34)c(NC3CCOCC3)c2)CC1 [entrectinib]	8	1.64	0.468	-1.69	19		-0.262	-3	74		7.48	
